# From US11167034B2, “Polymeric paste compositions for drug delivery” (The University of British Columbia, priority 2017, dated 2021)
# Key:
# [1] = In vitro drug release assay from polymeric paste (RP-HPLC-UV); assay type: physicochemical; settings: for drug released by day 50: PEG:PLGA 63:37 and PEG:PLGA:Diblock 50:37:13 pastes, 1% docetaxel, 4% enzalutamide, FIG. 12A, 12B; for drug released by day 7: 8% w/w lidocaine
# Procedure: The drug-loaded paste can be aliquoted for in vitro release studies. Paste (50-100 mg) is deposited at the bottom of a test tube and release medium is added (5-10 mL, sink conditions). Release medium is phosphate buffered saline (PBS, 10 mM, pH 7.4)) or PBS containing 1% Albumin. The test tubes are kept in a 37° C. incubator until the end of the study. Release samples are taken at appropriate time points by replacing the complete release medium (supernatant) and analyzing it for total drug using Reversed phase high-performance liquid chromatography with ultraviolet (UV) detection (RP-HPLC-UV).
# [2] = Kidney pelvis injection of gemcitabine paste; assay type: in vivo, pigs; settings: 5% gemcitabine in sodium hyaluronate containing paste, pig kidney pelvis
# Procedure: After placement of a ureteral catheter, three pigs received an injection of 1-2 mL of polymeric paste into the kidney pelvis. After removal of the ureteral catheter, a urinary catheter was placed and urine collected for 3 h intervals over 24 h. Blood was collected from an ear vein over 24 h and gemcitabine concentrations were determined using ultra high performance liquid chromatography tandem mass spectrometry (UHPLC-MS/MS).
# The drug gemcitabine was incorporated at 5% (m/m) in the sodium hyaluronate containing paste. This paste was injected through the 5 F catheter into the kidney pelvis of a pig.
# [3] = single local injection, regional delivery of lidocaine; cited from earlier work
# [4] = Local delivery of lidocaine paste subcutaneously in rats, serum lidocaine; assay type: in vivo; settings: for maximum serum concentration: subcutaneous, rats
# Procedure: Five groups of rats (male, Sprague Dawley™) with six animals in each group received one injection of paste formulation (0.1 mL) subcutaneously in their flank. The paste formulation was based on a 50:50 mixture of PEG 300™ and PLGA. Lidocaine was incorporated into the paste at 80, 100, 120, 140, and 160 mg per g of paste. The corresponding doses for each group were 23, 29, 36, 40 and 45 mg of Lidocaine per kg.
# Blood was collected from the saphenous vein over four weeks at 0, 0.25, 1, 4, 24, 48, 168 336, 504 and 672 hours after injection. Lidocaine concentrations in rat serum were determined using ultra high performance liquid chromatography tandem mass spectrometry (UHPLC-MS/MS). A non-compartmental analysis was then applied to each data set using Phoenix 64™ (Build 6.3.0.395) WinNonlin 63™ to determine relevant pharmacokinetic parameters.
# Five groups of rats (male, Sprague Dawley) with six animals in each group received one injection of paste formulation (0.1 mL) subcutaneously in their flank. The paste formulation was based on a 50:50 mixture of PEG 300™ and PLGA. Lidocaine was incorporated into the paste at 80, 100, 120, 140, and 160 mg per g of paste. The corresponding doses for each group were 23, 29, 36, 40 and 45 mg of lidocaine per kg.
# [5] = PEG:PLGA:Diblock 50:37:13, lidocaine 8%, cephalexin 2%, ibuprofen 5%, FIG. 18
# [6] = PEG:PLGA:Diblock 50:37:13, Tamsulosin 2% w/w, FIG. 17
# [7] = PEG:PLGA:Diblock 50:37:13, lidocaine 10%, desoximetasone 1%, FIG. 14
# [8] = PEG:PLGA 50:50 paste, docetaxel 4%, bicalutamide 4%, VPC-27 10%, FIG. 3A
# [9] = PEG:PLGA:Diblock 50:37:13, docetaxel 0.25%, bicalutamide 4%, VPC-27 4%, FIG. 5
# [10] = high diblock concentration (PEG:PLGA:Diblock 50:25:25), docetaxel 0.5%, FIG. 6D
# [11] = low diblock concentration (PEG:PLGA:Diblock 50:43:7), docetaxel 0.5%, FIG. 6A
structure (smiles),measurement,setting,value
CC1=C(C(=O)O)N2C(=O)[C@@H](NC(=O)[C@H](N)c3ccccc3)[C@H]2SC1 [Cephalexin],drug release at 1 day,"[1]; PEG:PLGA:Diblock 50:37:13, cephalexin between 2 and 19% loading, PBS without albumin, FIG. 10",almost all drug was released
same,"drug released, maximum on day 3",[1]; [5],80%
CC(C)Cc1ccc(C(C)C(=O)O)cc1 (stereo not shown) [Ibuprofen],drug released by day 35,[1]; [5],approximately 70%
same,"drug released, burst release by day one",[1]; [5],54%
CCOc1ccccc1OCCN[C@H](C)Cc1ccc(OC)c(S(N)(=O)=O)c1 [Tamsulosin],drug released by day 6,[1]; [6],70%
same,drug released on day 21,[1]; [6],80%
same,"drug released, burst phase on day 1",[1]; [6],47%
C[C@@H]1C[C@H]2[C@@H]3CCC4=CC(=O)C=C[C@]4(C)[C@@]3(F)[C@@H](O)C[C@]2(C)[C@H]1C(=O)CO [desoximetasone],drug released by day 35,[1]; [7],100%
same,"drug released, burst within the first day",[1]; [7],50%
CC(=O)O[C@@]12CO[C@@H]1C[C@H](O)[C@@]1(C)C(=O)[C@H](O)C3=C(C)[C@@H](OC(=O)[C@H](O)[C@@H](NC(=O)OC(C)(C)C)c4ccccc4)C[C@@](O)([C@@H](OC(=O)c4ccccc4)[C@H]21)C3(C)C [docetaxel],"drug released, fast burst over 5 days",[1]; [8],10%
same,further encapsulated drug released over the next 40 days,[1]; [8],20%
same,drug release on day 18,"[1]; PEG:PLGA 55:45 paste without diblock, docetaxel 1%, bicalutamide 4%, VPC-27 4%, FIG. 8",around 10%
same,drug released by day 50,[1],approximately 50%
same,drug released after one day,[1]; [9],24%
same,drug released on day 35,[1]; [9],32%
same,drug release at day 8,"[1]; PEG:PLGA:Diblock 50:37:13, docetaxel 1%, rapamycin 1%, VPC-27 4%, FIG. 9",~45%
same,drug released on day 21,[1]; [10],78%
same,"drug released, burst on day 1",[1]; [10],67%
same,drug released on day 21,[1]; [11],34%
same,"drug released, burst on day 1",[1]; [11],20%
CNC(=O)c1ccc(N2C(=S)N(c3ccc(C#N)c(C(F)(F)F)c3)C(=O)C2(C)C)cc1F [enzalutamide],drug released by day 50,[1],approximately 40%
Nc1ccn([C@@H]2O[C@H](CO)[C@@H](O)C2(F)F)c(=O)n1 [gemcitabine],blockage of the ureter,[2],did not result in any blockage of the ureter
same,Gemcitabine levels in urine,[2]; FIG. 25A,initially high and levelled off after 5-7 hours
same,Serum gemcitabine levels,[2]; FIG. 25B,"very low, but detectable in all pigs"
CCN(CC)CC(=O)Nc1c(C)cccc1C [lidocaine],drug released by day 7,"[1]; PEG:PLGA:Diblock 50:37:13, crescent shape",88%
same,drug released by day 7,"[1]; PEG:PLGA:Diblock 50:37:13, cylinder shape",92%
same,drug released by day 7,"[1]; PEG:PLGA:Diblock 50:37:13, hemisphere shape",approximately 65%
same,drug released by day 35,[1]; [5],approximately 70%
same,"drug released, burst release by day one",[1]; [5],54%
same,drug released by day 35,[1]; [7],80%
same,"drug released, burst within the first day",[1]; [7],50%
same,drug released by day 18,"[1]; all PEG:PLGA pastes without diblock (50:50, 55:45, 60:40), 8% lidocaine, FIG. 15",100%
same,duration,[3],60 to 120 min
same,onset,[3],3 min
same,maximum serum concentration,"[4]; 80 mg/g paste (PEG 300:PLGA 50:50), 23 mg/kg",557.26 ± 81.15 ng/mL
same,maximum serum concentration,"[4]; 100 mg/g paste (PEG 300:PLGA 50:50), 29 mg/kg",578.90 ± 162.59 ng/mL
same,maximum serum concentration,"[4]; 120 mg/g paste (PEG 300:PLGA 50:50), 36 mg/kg",638.03 ± 190.61 ng/mL
same,maximum serum concentration,"[4]; 140 mg/g paste (PEG 300:PLGA 50:50), 40 mg/kg",855.98 ± 196.18 ng/mL
same,maximum serum concentration,"[4]; 160 mg/g paste (PEG 300:PLGA 50:50), 45 mg/kg",1148.88 ± 838.97 ng/mL
same,maximum concentrations detected in serum in each group,"[4]; all studied strengths, below upper limit of therapeutic range",< 5000 ng/mL
